Values of other authors as cited in patent EP1017675B1, “HIGHLY LIPOPHILIC CAMPTOTHECIN DERIVATIVES” (BIONUMERIK PHARMACEUTICALS, INC., priority 1997, dated 1998).

Details: parenterally administered; fraction of the lactone form's potency

SMILES: CC[C@@](O)(C(=O)O)c1cc2n(c(=O)c1CO)Cc1cc3ccccc3nc1-2 [carboxylate species]
- antitumor potency relative to the lactone form: one-tenth
